Data as given in the NIST ThermoML archive (doi:10.1021/je800110r).

Details: 323.14 K, Liquid, Vibrating tube method

CCCCCCCCCC [decane]
Details	mass density [kg/m3]
13785 kPa	718.8
13804 kPa	718.9
13828 kPa	718.9
14191 kPa	719.3
14209 kPa	719.3
14225 kPa	719.4
14243 kPa	719.2
14258 kPa	719.3
14293 kPa	719.3
14335 kPa	719.3
14443 kPa	719.4
14465 kPa	719.4
14487 kPa	719.5
14504 kPa	719.5
14521 kPa	719.5
14541 kPa	719.5
14562 kPa	719.5
14576 kPa	719.5
14589 kPa	719.5
14598 kPa	719.5
14609 kPa	719.6
14666 kPa	719.6
14766 kPa	719.7
14778 kPa	719.6
14789 kPa	719.6
14800 kPa	719.6
14810 kPa	719.7
14824 kPa	719.7
14837 kPa	719.7
14850 kPa	719.7
14864 kPa	719.8
14876 kPa	719.8
14889 kPa	719.7
14900 kPa	719.7
14913 kPa	719.8
14923 kPa	719.9
14931 kPa	719.9
14941 kPa	719.8
14955 kPa	719.8
14964 kPa	719.8
14976 kPa	719.9
14990 kPa	719.9
15000 kPa	719.8
15350 kPa	720.2
15364 kPa	720.1
15378 kPa	720.2
15435 kPa	720.1
15447 kPa	720.2
15460 kPa	720.2
15476 kPa	720.3
15490 kPa	720.3
15507 kPa	720.3
15517 kPa	720.2
15527 kPa	720.3
15542 kPa	720.4
15556 kPa	720.2
15567 kPa	720.3
15581 kPa	720.4
15594 kPa	720.3
15610 kPa	720.3
15624 kPa	720.4
15639 kPa	720.3
15655 kPa	720.4
15673 kPa	720.4
15738 kPa	720.4
15754 kPa	720.6
15765 kPa	720.5
15776 kPa	720.5
15787 kPa	720.5
15805 kPa	720.5
15818 kPa	720.6
15829 kPa	720.6
15844 kPa	720.6
15853 kPa	720.6
15866 kPa	720.5
15877 kPa	720.5
15890 kPa	720.5
15904 kPa	720.6
15915 kPa	720.5
15926 kPa	720.6
15940 kPa	720.6
15955 kPa	720.6
15970 kPa	720.6
15982 kPa	720.7
16000 kPa	720.7
16012 kPa	720.6
16029 kPa	720.7
16041 kPa	720.8
16056 kPa	720.6
16067 kPa	720.7
16079 kPa	720.8
16091 kPa	720.8
16100 kPa	720.9
16110 kPa	720.7
16124 kPa	720.7
16136 kPa	720.8
16148 kPa	720.7
16160 kPa	720.7
16175 kPa	720.8
16192 kPa	720.9
16206 kPa	720.8
16223 kPa	720.9
16235 kPa	720.9
16249 kPa	720.9
16265 kPa	720.8
16281 kPa	720.9
16305 kPa	720.9
16323 kPa	720.9
16485 kPa	721.1
16497 kPa	721
16509 kPa	721.1
16526 kPa	721
16540 kPa	721.1
16554 kPa	721.1
16570 kPa	721.1
16583 kPa	721
16614 kPa	721.1
16658 kPa	721.2
17010 kPa	721.4
17025 kPa	721.5
17272 kPa	721.7
17288 kPa	721.6
17305 kPa	721.6
17323 kPa	721.8
17337 kPa	721.8
17350 kPa	721.7
17369 kPa	721.7
17387 kPa	721.7
17405 kPa	721.7
17419 kPa	721.7
17442 kPa	721.7
17455 kPa	721.9
17473 kPa	721.8
17491 kPa	721.9
17510 kPa	721.8
17532 kPa	721.9
17546 kPa	721.9
17561 kPa	721.9
17579 kPa	721.9
17593 kPa	721.9
17612 kPa	722
17645 kPa	721.9
17659 kPa	722
17677 kPa	722
17694 kPa	722
17715 kPa	721.9
17731 kPa	722
17751 kPa	722
17772 kPa	722
17788 kPa	722.1
17805 kPa	722.1
17824 kPa	722.1
17838 kPa	722.1
17860 kPa	722.2
17879 kPa	722.1
17901 kPa	722.3
17922 kPa	722.1
17942 kPa	722.2
17955 kPa	722.2
17972 kPa	722.2
17992 kPa	722.3
18009 kPa	722.3
18023 kPa	722.3
18038 kPa	722.2
18057 kPa	722.1
18072 kPa	722.3
18087 kPa	722.2
18109 kPa	722.2
18131 kPa	722.3
18155 kPa	722.2
18169 kPa	722.3
18192 kPa	722.4
18209 kPa	722.4
18232 kPa	722.4
18247 kPa	722.4
18269 kPa	722.4
18292 kPa	722.4
18310 kPa	722.4
18335 kPa	722.4
18351 kPa	722.5
18374 kPa	722.5
18390 kPa	722.5
18405 kPa	722.5
18423 kPa	722.6
18443 kPa	722.5
18464 kPa	722.6
18487 kPa	722.7
18500 kPa	722.6
18518 kPa	722.7
18543 kPa	722.7
18564 kPa	722.7
18583 kPa	722.6
18598 kPa	722.7
18616 kPa	722.6
18637 kPa	722.7
18660 kPa	722.7
18684 kPa	722.7
18703 kPa	722.7
18735 kPa	722.7
18758 kPa	722.7
18795 kPa	722.8
18816 kPa	722.9
18846 kPa	722.9
18905 kPa	722.9
18921 kPa	722.9
18940 kPa	722.9
18959 kPa	723
18983 kPa	722.9
19005 kPa	723.1
19027 kPa	723
19043 kPa	723
19062 kPa	723.1
19263 kPa	723.2
19308 kPa	723.2
19354 kPa	723.3
19373 kPa	723.3
19390 kPa	723.4
19410 kPa	723.3
19436 kPa	723.3
19461 kPa	723.4
19485 kPa	723.4
19509 kPa	723.4
19574 kPa	723.4
19594 kPa	723.5
19637 kPa	723.4
19655 kPa	723.6
19672 kPa	723.5
19720 kPa	723.6
19741 kPa	723.5
19760 kPa	723.6
19777 kPa	723.6
19795 kPa	723.6
19813 kPa	723.6
19840 kPa	723.6
19867 kPa	723.7
19891 kPa	723.7
19912 kPa	723.8
19936 kPa	723.7
19957 kPa	723.7
20009 kPa	723.8
20031 kPa	723.8
20049 kPa	723.7
20080 kPa	723.8
20105 kPa	723.9
20127 kPa	723.9
20154 kPa	723.9
20176 kPa	723.9
20191 kPa	723.9
20210 kPa	724
20235 kPa	723.9
20257 kPa	724
20286 kPa	724
20304 kPa	723.8
20323 kPa	724
20345 kPa	724
20363 kPa	724
20389 kPa	724.1
20431 kPa	724.2
20462 kPa	724
20482 kPa	724.2
20504 kPa	724.1
20520 kPa	724.2
20562 kPa	724.2
20584 kPa	724.3
20607 kPa	724.2
20630 kPa	724.1
20675 kPa	724.4
21120 kPa	724.6
21147 kPa	724.5
21168 kPa	724.7
21192 kPa	724.6
21219 kPa	724.7
21366 kPa	724.8
